From patent US9751846B2, “Method for producing 1,4-benzoxazine compound” (MITSUBISHI TANABE PHARMA CORPORATION, priority 2012, dated 2017)
“Also recorded” adds a separate entry of the source.

Experiments:
[1] = hygroscopicity of the crystal form; format: physicochemical
[2] = stability of the crystal form (transition by heating, thermostability); format: physicochemical; settings: for stability of the crystal: general statement
[3] = stability of the crystal in a formulation; format: physicochemical
[4] = mutagenicity (AMES test); format: cell-based

Structure (SMILES) | hygroscopicity [1] | stability of the crystal [2] | other results
CC1(C)Oc2cc(NS(C)(=O)=O)ccc2N(c2ccc(F)cc2)C1=O [Form A crystal, N-[4-(4-fluorophenyl)-2,2-dimethyl-3-oxo-3,4-dihydro-2H-1,4-benzoxazin-7-yl]methanesulfonamide] | low hygroscopicity; also recorded: non-hygroscopic | highly stable | transition to amorphous state or other crystal form by heating ([2]; heating): hardly makes a transition to other crystal form by heating; also recorded: does not transform to an amorphous state or other crystal form; stability in a formulation [3]: high stability in a formulation; also recorded: highly stable in a formulation
CC1(C)Oc2cc(NS(C)(=O)=O)ccc2N(c2ccc(F)cc2)C1=O [Form B crystal, N-[4-(4-fluorophenyl)-2,2-dimethyl-3-oxo-3,4-dihydro-2H-1,4-benzoxazin-7-yl]methanesulfonamide] | low hygroscopicity | highly stable | thermostability ([2]; as compared to the Form D crystal of Patent Literature 1): higher thermostability
CC1(C)Oc2cc(NS(C)(=O)=O)ccc2N(c2ccc(F)cc2)C1=O [Form C crystal, N-[4-(4-fluorophenyl)-2,2-dimethyl-3-oxo-3,4-dihydro-2H-1,4-benzoxazin-7-yl]methanesulfonamide] |  | highly stable | 
CC1(C)Oc2cc(N(S(C)(=O)=O)S(C)(=O)=O)ccc2N(c2ccc(F)cc2)C1=O [compound [c], N-[4-(4-fluorophenyl)-2,2-dimethyl-3-oxo-3,4-dihydro-2H-1,4-benzoxazin-7-yl]-N-(methylsulfonyl)methanesulfonamide] |  |  | mutagenicity ([4]; test not named at this place, synthetic intermediate of the new route): lower mutagenicity
CC1(C)Oc2cc(N)ccc2N(c2ccc(F)cc2)C1=O [intermediate (2), 7-amino-4-(4-fluorophenyl)-2,2-dimethyl-2H-1,4-benzoxazin-3(4H)-one] |  |  | mutagenicity by the AMES test ([4]; synthetic intermediate of the Patent Literature 1 route): strong mutagenicity
